Legend:
[1] = system: HCV genotype 1b (HCV-1b) replicon cells; assay: HCV genotype 1b replicon luciferase assay (EC50); format: cell-based, hepatitis C virus genotype 1b (Con1 clone); conditions: 3 days, luciferase (Bright-Glo)
Method in brief: (§1)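 H77-derived 1a (K1691R, K2040R, S2204I) or Con1-derived 1b (E1202G, T1280I, K1846T) luciferase replicon cells, 8000/well, exposed 3 days at 37° C. to 6-point 5-fold dilutions (top 100, 10 or 1 nM; 0.5% DMSO), in duplicate. Bright-Glo luminescence read; EC50 from nonlinear fit of % inhibition.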

[2] = system: HCV genotype 1a (HCV-1a) replicon cells; assay: HCV genotype 1a replicon luciferase assay (EC50); format: cell-based, hepatitis C virus genotype 1a (H77 clone); conditions: 3 days, luciferase (Bright-Glo)
Method in brief: as §1

[3] = Cell Titer-fluor cell activity assay in HCV-1b replicon cells (CC50); format: cell-based
Method in brief: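 Con1 genotype 1b replicon cells (E1202G, T1280I, K1846T adaptive mutations), 8000 cells/well, exposed to 6-point 5-fold dilutions from 100, 10 or 1 nM top concentration in 0.5% DMSO, duplicate wells, 3 days at 37 °C. Viability read by Cell Titer-fluor (Ex 405/Em 515 nm) after 30 min; CC50 from nonlinear fit of inhibition %.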

Row | Structure (SMILES) | EC50 ([1]; Hepatitis C virus, 72 h) [nM] | EC50 ([2]; Hepatitis C virus, 72 h) [nM] | CC50 at 3 days [3] [nM] | EC50 [1] [nM] | EC50 [2] [nM]
1 | COC(=O)N[C@H](C(=O)N1CCC[C@H]1c1ncc(-c2ccc(-c3ccc(-c4cnc(C5CCCC[C@@H]5C(=O)N(NC(=O)OC)C(C)C)[nH]4)cc3C(F)(F)F)cc2)[nH]1)C(C)C (stereo partly drawn) [AA_127] | 0.101 to 1 | 10 to 100 | > 10 |  | 
2 | CCOC(=O)CNC(=O)[C@@H](NC(=O)[C@@H]1[C@@H]2CC[C@@H](C2)[C@H]1c1ncc(-c2ccc(-c3ccc(-c4cnc([C@@H]5CCCN5C(=O)[C@@H](NC(=O)OC)C(C)C)[nH]4)cc3)cc2)[nH]1)C(C)C [AA_301_ENDOA2] | 0.101 to 1 | 10 to 100 | > 1 |  | 
3 | COC(=O)N[C@H](C(=O)N1CCC[C@H]1c1ccc(-c2ccc(-c3ccc(-c4cnc([C@H](C)NC(=O)[C@@H](NC(=O)OC)[C@@H](C)OC)[nH]4)cc3)cc2)[nH]1)C(C)OC (stereo partly drawn) [AG_112] | 0.001 to 0.1 | 1 to 10 | > 1 |  | 
4 | COC(=O)N[C@H](C(=O)N1CCC[C@H]1c1ncc(-c2ccc(-c3ccc(-c4cnc([C@@H]5[C@H]6CC[C@H](C6)[C@H]5C(=O)NCc5nccs5)[nH]4)cc3)cc2)[nH]1)C(C)C [AA_208_ENDOA2] | 0.001 to 0.1 | 0.101 to 1 | > 1 |  | 
5 | COC(=O)N[C@H](C(=O)N1CCC[C@H]1c1ncc(-c2ccc(-c3ccc(-c4cnc([C@H]5C6CCC(C6)[C@@H]5C(=O)NCc5ccc(C(C)C)nc5)[nH]4)cc3)cc2)[nH]1)C(C)C (stereo partly drawn) [AA_236_A] | 0.001 to 0.1 | 10 to 100 | > 1 |  | 
6 | COC(=O)N[C@H](C(=O)N1CCC[C@H]1c1ncc(-c2ccc(-c3ccc(-c4cnc([C@H]5C6CCC(C6)[C@@H]5C(=O)NCc5cccnc5C5CC5)[nH]4)cc3)cc2)[nH]1)C(C)C (stereo partly drawn) [AA_234_A] | 0.001 to 0.1 | 1 to 10 | > 1 |  | 
7 | COC(=O)N[C@H](C(=O)N1CCC[C@H]1c1ncc(-c2ccc(-c3ccc(-c4cnc([C@H]5C6CCC(C6)[C@@H]5C(=O)NCc5cccs5)[nH]4)cc3)cc2)[nH]1)C(C)C (stereo partly drawn) [AA_196_A] | 0.001 to 0.1 | 1 to 10 | > 1 |  | 
8 | COC(=O)N[C@H](C(=O)N1CCC[C@H]1c1ncc(-c2ccc(-c3ccc(-c4cnc([C@@H]5[C@H]6CC[C@H](C6)[C@H]5C(=O)NN(C(C)=O)C(C)C)[nH]4)cc3)cc2)[nH]1)C(C)C [AA_300_ENDOA2] | 0.101 to 1 | 10 to 100 | > 1 |  | 
9 | COC(=O)N[C@H](C(=O)N1CCC[C@H]1c1ncc(-c2ccc(-c3ccc(-c4cnc(C5CCCC[C@H]5C(=O)NCc5cccnc5)[nH]4)cc3)cc2)[nH]1)C(C)C (stereo partly drawn) [AA_113] | 0.101 to 1 | 1 to 10 | > 10 |  | 
10 | COC(=O)N[C@H](C(=O)N1CCC[C@H]1c1[nH]c(-c2ccc(-c3ccc(-c4cnc([C@@H]5CCCN5C(=O)[C@@H](NC(=O)OC)[C@@H](C)O)[nH]4)cc3)cc2)c2c1COC2)C(C)C [AG_104] | 0.001 to 0.1 | 0.001 to 0.1 | > 1 |  | 
11 | COC(=O)N[C@H](C(=O)N1CCC[C@H]1c1[nH]c(-c2ccc(-c3ccc(-c4cnc([C@@H]5CCCN5C(=O)[C@@H](NC(=O)OC)C(C)(C)C)[nH]4)cc3)cc2)c2c1CCC2)C(C)C [AG_093] | 0.001 to 0.1 | 10 to 100 | > 1 |  | 
12 | COC(=O)N[C@H](C(=O)N1CCC[C@H]1c1ncc(-c2ccc(-c3ccc(-c4cnc([C@H]5C6CCC(C6)[C@@H]5C(=O)NCCc5ccccn5)[nH]4)cc3)cc2)[nH]1)C(C)C (stereo partly drawn) [AA_202] | 0.001 to 0.1 | 1 to 10 | > 1 |  | 
13 | COC(=O)N[C@H](C(=O)N1CCC[C@H]1c1ncc(-c2ccc3c(c2)C(=O)c2cc(-c4cnc(C5C6CCC(C6)[C@H]5C(=O)NCc5cccnc5)[nH]4)ccc2-3)[nH]1)C(C)C (stereo partly drawn) [AA_239] | 0.001 to 0.1 | 1 to 10 | > 1 |  | 
14 | COC(=O)N[C@H](C(=O)N1CCC[C@H]1c1cnc(-c2ccc(-c3ccc(-c4ncc(C5C6CCC(C6)[C@@H]5C(=O)N(NC(=O)OC)C(C)C)[nH]4)cc3)cc2C)[nH]1)C(C)C (stereo partly drawn) [AA_169_B] | 0.001 to 0.1 | 10 to 100 | > 5 |  | 
15 | COC(=O)N[C@H](C(=O)N1CCC[C@H]1c1ncc(-c2ccc(-c3ccc(-c4cnc(C5C6CCC(C6)[C@@H]5C(=O)N(NC(=O)OC)C(C)C)[nH]4)cc3)c(OC)c2)[nH]1)C(C)C (stereo partly drawn) [AA_190_A] | 0.101 to 1 | 10 to 100 | > 1 |  | 
16 | COC(=O)N[C@H](C(=O)N1CCC[C@H]1c1[nH]c(-c2ccc(-c3ccc(-c4cnc(C5C6CCC(C6)[C@@H]5C(=O)N(NC(=O)OC)C(C)C)[nH]4)cc3)cc2)c2c1CCC2)C(C)C (stereo partly drawn) [AA_155] | 1 to 10 | 10 to 100 | > 100 |  | 
17 | COC(=O)N[C@H](C(=O)N1CCC[C@H]1c1ncc(-c2ccc(-c3ccc(-c4cnc([C@H]5C6CCC(C6)[C@@H]5C(=O)NCc5cccc(N)c5)[nH]4)cc3)cc2)[nH]1)C(C)C (stereo partly drawn) [AA_199_A] | 0.001 to 0.1 | 1 to 10 | > 1 |  | 
18 | COC(=O)N[C@H](C(=O)N1CCC[C@H]1c1ncc(-c2ccc(-c3ccc(-c4cnc([C@@H]5C6CCC(C6)[C@H]5C(=O)NCc5cccs5)[nH]4)cc3)cc2)[nH]1)C(C)C (stereo partly drawn) [AA_196_B] | 0.001 to 0.1 | 10 to 100 | > 1 |  | 
19 | COC(=O)N[C@H](C(=O)N1CCC[C@H]1c1nc2cc(-c3ccc(-c4[nH]c([C@@H]5CCCN5C(=O)[C@@H](NC(=O)OC)C(C)C)c5c4CCC5)cc3)ccc2[nH]1)C(C)C [AG_063] | 0.001 to 0.1 | 10 to 100 | > 1 |  | 
20 | COC(=O)N[C@H](C(=O)N1CCC[C@H]1c1ncc(-c2ccc(-c3ccc(-c4cnc(C5C6CCC(C6)[C@H]5C(=O)NCc5ccncc5)[nH]4)cc3)cc2)[nH]1)[C@@H](C)OC (stereo partly drawn) [AA_248_A] | 0.101 to 1 | 10 to 100 | > 1 |  | 
21 | COC(=O)N[C@H](C(=O)N1CCC[C@H]1c1ncc(-c2ccc(-c3ccc(-c4[nH]c([C@@H]5CCCN5C(=O)[C@@H](NC(=O)OC)C(C)C)c5c4OCC5)cc3)cc2)[nH]1)C(C)C [AG_122_A] |  |  | > 1 | 0.001 to 0.1 | 1 to 10
22 | COC(=O)N[C@H](C(=O)N1CCC[C@H]1c1ncc(-c2ccc(-c3ccc(-c4cnc([C@H]5C6CCC(C6)[C@@H]5C(=O)NCc5nccs5)[nH]4)cc3)cc2)[nH]1)C(C)C (stereo partly drawn) [AA_208_A] | 0.001 to 0.1 | 1 to 10 | > 1 |  | 
23 | COC(=O)N[C@H](C(=O)N1CCC[C@H]1c1ncc(-c2ccc(-c3ccc(-c4cnc(C5C6CCC(C6)[C@@H]5C(=O)NCc5cnccn5)[nH]4)cc3)cc2)[nH]1)[C@@H](C)OC (stereo partly drawn) [AA_268_A] | 0.001 to 0.1 | 0.101 to 1 | > 1 |  | 
24 | COC(=O)N[C@H](C(=O)N1CCC[C@H]1c1ncc(-c2ccc(-c3ccc(-c4[nH]c([C@@H]5CCCN5C(=O)[C@@H](NC(=O)OC)[C@@H](C)OC)c5c4COC5)cc3)cc2)[nH]1)[C@@H](C)O [AG_105] | 0.001 to 0.1 | 0.101 to 1 | > 1 |  | 
25 | COC(=O)N[C@H](C(=O)N1CCC[C@H]1c1ncc(-c2ccc(-c3ccc(-c4cnc([C@H]5C6CCC(C6)[C@@H]5C(=O)NC(C)c5cccnc5)[nH]4)cc3)cc2)[nH]1)C(C)C (single isomer, unassigned) [AA_204_A] | 0.001 to 0.1 |  | > 1 |  | 0.101 to 1
26 | COC(=O)N[C@H](C(=O)N1CCC[C@H]1c1ncc(-c2ccc(-c3ccc(-c4cnc(C5C6CCC(C6)[C@H]5C(=O)NC(C)c5cnccn5)[nH]4)cc3)cc2)[nH]1)[C@@H](C)OC (stereo partly drawn) [AA_281_B] | 0.001 to 0.1 | 0.101 to 1 | > 1 |  | 
